Experimental findings from patent US9962398B2, “Sulfonamide compounds for inhibition of metastatic tumor growth” (Welichem Biotech Inc., priority 2010, dated 2018) are described below.

For one series, the system named is 4T1 cells. The series is described as follows: Measurement of extracellular pH in hypoxia, 4T1 cells. In kind it is cell-based, mouse. Conditions: 72 h, 400 uM MST-017. Here is the method:
(§1) Changes in solution pH were assessed using procedures published previously (29, 42, 43). In brief, cells were plated at appropriate density (1×10^4 cells/cm2 for 4T1 cells and its transfected derivatives, 2×10^4 cells/cm2 for 66cl4 cells, 1×10^4 cells/cm2 for 67NR cells and its transfected derivatives) in 60 mm dishes and allowed to recover overnight. A standard volume of 3 ml of fresh media/dish was then added and cells were incubated in normoxia (air+5% CO2) or hypoxia (1% O2 and 5% CO2 balanced with nitrogen) for 72 h. Care was taken to ensure that cultures grown in normoxia and hypoxia were at similar confluence and contained similar cell numbers at the time of medium collection. Collected spent media was maintained at 37° C. and pH was measured immediately using a digital pH meter. […] Cells were harvested on ice for qRT-PCR and Western blot analysis.
(§2) Ureido sulfonamides are new.
Cells were cultured for 72 h in the presence of 10 μM MST-017. Shown in FIG. 9 are representative images of the FITC-tagged inhibitor bound to the cell lines in the indicated conditions. […] For each cell line, changes in the extracellular pH in hypoxia were assessed relative to the baseline extracellular pH measured in parallel cultures grown in normoxia. *P<0.001 with a two-sided Student's t-test, compared to cells cultured without inhibitor.

The subject of another series is 66cl4 cells. As to the kind of experiment: Measurement of extracellular pH in hypoxia, 66cl4 cells. In kind it is cell-based, mouse. Conditions: 72 h, 600 uM MST-017. As to the method:
as §1, §2
Shown in FIG. 9 are representative images of the FITC-tagged inhibitor bound to the cell lines in the indicated conditions. […] For each cell line, changes in the extracellular pH in hypoxia were assessed relative to the baseline extracellular pH measured in parallel cultures grown in normoxia. *P<0.001 with a two-sided Student's t-test, compared to cells cultured without inhibitor.

Another series concerns 4T1 primary tumors. Conditions: mouse, in vivo.
A further series has as its system 67NR-derived tumors. The settings on record: mouse, in vivo.
A further series concerns 4T1 mammary tumor cells. As to the kind of experiment: Experimental metastasis assay, intravenous 4T1 cells, bioluminescence. The class given is in vivo, mouse. Conditions: tail vein 4T1 cells, BALB/c mice, daily i.p. for 5 days, imaged 24 h after final dose. As to the method: For studies involving genetic depletion of CAIX, 4T1 or 67NR cells (5×10^5) were injected directly into the tail vein of 7-9 week-old female BALB/c mice. Mice were imaged once per week to follow the growth of metastases. Mice were euthanized 20 days post-injection and lungs were resected for further analysis. Tumor burden in the lung was quantified by manually counting nodules visible on the lung surface. For studies using sulphonamide inhibitors, 4T1 cells (1-5×10^5) were injected as described above (Pacchiano et al, (2011) J Med Chem 54:1896-1902).
Animals were treated 24 hours post inoculation of cells. Three doses were administered by i.p. injection over 6 days and the mice were imaged 24 hours following the third dose of inhibitor. […] Quantification of tumor-derived bioluminescence is shown in 12C. Regions of interest were positioned around metastatic foci and total flux (photons/sec) at the mouse surface was calculated. Data are reported as the mean±s.e.m. N=4 per group. *P<0.05.
4T1 cells were injected directly into the tail vein of BALB/c mice. […] Vehicle and inhibitor were administered by i.p. injection. Shown are representative images of tumor-cell derived bioluminescence in control and inhibitor-treated animals.

The next series relates to MDA-231 LM2-4 Luc+ cells. As to the kind of experiment: 3D Matrigel invasion assay in hypoxia. The class given is cell-based, human. The settings on record: 4 days in hypoxia. As to the method:
A 3D “on-top” matrigel culture assay was performed as described previously (Lee et al, (2007) Nat Methods 4:359-365). […] Cells were allowed to attach for 45 minutes with side-to-side agitation every 10-15 minutes to prevent clumping of cells in the center of the well. An additional 100 μl/well media containing 10% matrigel was added to the cells and cultures were incubated in hypoxia for 4 days. Images were acquired and cultures were fixed for TUNEL using the “whole culture fixation” methodology outlined in Lee et al, (2007) Nat Methods 4:359-365).
Treatment with novel sulfonamide inhibitors of CAIX attenuates hypoxia-induced invasion of human breast cancer cells grown in 3D Matrigel™ cultures (FIG. 16). Cells were cultured in 3D “on-top” Matrigel™ assays for 4 days in hypoxia in the presence of inhibitors. DMSO-treated cell cultures served as controls. The percentage concentration of DMSO and molar concentration of inhibitors are indicated. Representative phase contrast images are shown.

In series [1] the test system is MDA-MB-231 LM2-4luc+ tumors. The series is described as follows: ESA+ cancer stem cell population in orthotopic xenograft tumors (FACS). The settings on record: NOD/SCID mice, 38 mg/kg daily i.p., vs vehicle-treated tumors. The class given is in vivo, human. The source says:
MDA-MB-231 LM2-4^luc+ were implanted orthotopically into NOD/SCID mice. […] (A) Primary tumors were removed, dissociated and ESA+ cell population assessed by FACS analysis. […] (B) Data shown are the mean changes in ESA+ cells±SEM, from 3 mice. **P<0.0224.
(In general: Xenograft models place foreign cells or tissue in a host animal.)

Series [2] relates to MDA-MB-231 LM2-4Luc+ cells. The settings on record: in vivo.
Description: For studies involving CAIX depletion, 1×10^7 MDA-MB-231 cells suspended in a 50% Matrigel/PBS solution were implanted subcutaneously in 6-8 week-old female NOD.CB17-prkdc^scid/J mice. […] Therapy was initiated when the tumors reached 200 mm^3. For both models, tumor growth was monitored by caliper measurement.
The initiation and termination of inhibitor treatment is indicated. n=8/group. *P<0.03, **P<0.001.
In series [3] the target is T1, hCA IX (Homo sapiens (Human), UniProt Q16790). As to the kind of experiment: biochemical.
A further series deals with hCA II (Homo sapiens (Human), UniProt P00918). Conditions: read-out: Ki (nM) hCA II; Table 3.
Series [4] concerns the target T1, hCA IX. The settings on record: read-out: Ki (nM) hCA IX; Table 3.
The next series deals with hCA XII (Homo sapiens (Human), UniProt O43570). Conditions: read-out: Ki (nM) hCA XII; Table 3.

Where two headings read alike, the source gives them in different places.

hCA XII, sequence (O43570 25-354): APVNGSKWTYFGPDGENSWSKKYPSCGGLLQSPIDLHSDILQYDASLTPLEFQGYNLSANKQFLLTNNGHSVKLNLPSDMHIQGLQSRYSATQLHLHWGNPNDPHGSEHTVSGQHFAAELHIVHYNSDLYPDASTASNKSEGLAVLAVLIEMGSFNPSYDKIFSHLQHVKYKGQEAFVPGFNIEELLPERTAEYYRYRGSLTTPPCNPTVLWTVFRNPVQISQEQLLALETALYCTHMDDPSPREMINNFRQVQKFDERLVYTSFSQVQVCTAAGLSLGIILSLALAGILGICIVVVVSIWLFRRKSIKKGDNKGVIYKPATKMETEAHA
Protocol for 4T1 primary tumors: For in vitro studies, the compounds were dissolved in DMSO, stored at −80° C. and diluted into culture medium just prior to application. […] For in vivo studies, the MST-017 inhibitor was administered by i.p. injection (first two doses were administered i.v.) at 75 mg/kg and 150 mg/kg 3× per week for 2 weeks. […] The compounds were solubilized in PEG400/ethanol/saline prior to injection. Vehicle components were held constant as inhibitor concentrations were varied.
(§3) Primary tumor growth rates were calculated from caliper measurements using the modified ellipsoid formula (L×W^2)/2.
Animals were inoculated orthotopically with 4T1 cells. Tumors were allowed to establish for 14 days. Mice were injected with the indicated doses of MST-017 3× per week for 2 weeks. Left panel, tumor growth was monitored by caliper-based measurement. […] Vehicle-treated and untreated animals served as controls. *P<0.02, **P<0.01 using a 2-sided Student's t-test, compared to vehicle controls.
The weights of treated animals were monitored as a measure of general inhibitor toxicity. Mice were weighed just prior to each dose of the CAIX inhibitor.
Protocol for 67NR-derived tumors: For in vivo studies, the MST-017 inhibitor was administered by i.p. injection (first two doses were administered i.v.) at 75 mg/kg and 150 mg/kg 3× per week for 2 weeks. […] The compounds were solubilized in PEG400/ethanol/saline prior to injection. Vehicle components were held constant as inhibitor concentrations were varied.
as §3

For `NS(=O)(=O)c1ccc(CCNC(=S)Nc2ccc(-c3c4ccc(=O)cc-4oc4cc(O)ccc34)c(C(=O)O)c2)cc1` [MST-017], the “change in extracellular pH” value in the series on 4T1 cells and in the series with 66cl4 cells was “reversed acidification of the extracellular medium” in each case. Also, the figures for the tumor growth result with 4T1 primary tumors and in the series with 67NR-derived tumors were “significant inhibition of tumor growth” and “no significant effect”, respectively. For the same compound, the “weights of treated animals” value with 4T1 primary tumors and in the series with 67NR-derived tumors was “no significant weight reduction” in each case.
As for `NS(=O)(=O)c1ccc(NC(=O)Nc2ccc(F)cc2)cc1` [MST-104, 4-{[(4′-Fluorophenyl)carbamoyl]amino}benzenesulfonamide], the “formation of metastases (tumor-derived bioluminescence)” value in the series on 4T1 mammary tumor cells is on record as “statistically significant decrease in the formation of metastases”. For the same compound, the hypoxia-induced invasion result in the series on MDA-231 LM2-4 Luc+ cells is given as “inhibit invasion”. In addition, the “ESA+ cell population” value in series [1] is on record as “significantly reduced ESA+ cell population”. Further, the tumor growth result in [2] is “significant, dose-dependent inhibition of tumor growth”.
As a reminder, the Ki is the equilibrium dissociation constant of an inhibitor or competing ligand from its target. For `NS(=O)(=O)c1cccc(NC(=O)Nc2c(F)c(F)c(F)c(F)c2F)c1` [MST-133, 3-(3-(Perfluorophenyl)ureido)benzenesulfonamide], the inhibitory constant (Ki) on hCA IX [3] stood at 4.2 nM.
Turning to `NS(=O)(=O)c1ccc(NC(=O)Nc2cccc(Cl)c2)cc1` [MST-143, 4-(3-(3′-chlorophenyl)ureido)benzenesulfonamide], the inhibition constant Ki on hCA II was found to be 10 nM; on hCA IX [4], 8.4 nM; at hCA XII, 8.5 nM.
